The target of assay [1] is T1, JAK2 (Homo sapiens, UniProt O60674).
T1 construct: host or cells: baculovirus expression system
Kind of assay: Recombinant Human JAK2 Kinase Assay (TRF). The format is biochemical. Conditions: read-out: JAK2 Potency. In a few lines: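 Kinase activity of baculovirus-expressed JAK2 is followed on a surface-immobilised biotinylated peptide, with the reaction run for 20 min at room temperature in buffer containing 0.2 μM ATP and manganese. Phosphorylation is read with Eu-N1 PY100 antibody.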

The target of assay [2] is T2, ALK (Homo sapiens, UniProt Q9UM73).
T2 construct: host or cells: baculovirus expression system
As to the kind of experiment: ALK Kinase Assay (ELISA/TRF, PLC-γ substrate). The format is biochemical. Conditions: read-out: ALK Potency. In a few lines: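 PLC-γ coat 10 μg/mL in TBS; ALK 30 ng/ml added to start; 37° C, 15 min; Eu-N1 PT66 antibody detection (TRF). IC50: % inhibition vs log10 [cpd], variable-slope sigmoidal fit.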

The mark [3] stands for this setting: JAK2 kinase inhibition, 0.2 μM ATP.
Setting [4] is: ALK kinase inhibition, 1 μM ATP.

Like-named read-outs stand apart in the source and are kept apart here.

Among the data in patent US8471005B2 (Cephalon, Inc., priority 2008, dated 2013) are IC50 values, retold here.

T1 sequence (O60674 whole entry): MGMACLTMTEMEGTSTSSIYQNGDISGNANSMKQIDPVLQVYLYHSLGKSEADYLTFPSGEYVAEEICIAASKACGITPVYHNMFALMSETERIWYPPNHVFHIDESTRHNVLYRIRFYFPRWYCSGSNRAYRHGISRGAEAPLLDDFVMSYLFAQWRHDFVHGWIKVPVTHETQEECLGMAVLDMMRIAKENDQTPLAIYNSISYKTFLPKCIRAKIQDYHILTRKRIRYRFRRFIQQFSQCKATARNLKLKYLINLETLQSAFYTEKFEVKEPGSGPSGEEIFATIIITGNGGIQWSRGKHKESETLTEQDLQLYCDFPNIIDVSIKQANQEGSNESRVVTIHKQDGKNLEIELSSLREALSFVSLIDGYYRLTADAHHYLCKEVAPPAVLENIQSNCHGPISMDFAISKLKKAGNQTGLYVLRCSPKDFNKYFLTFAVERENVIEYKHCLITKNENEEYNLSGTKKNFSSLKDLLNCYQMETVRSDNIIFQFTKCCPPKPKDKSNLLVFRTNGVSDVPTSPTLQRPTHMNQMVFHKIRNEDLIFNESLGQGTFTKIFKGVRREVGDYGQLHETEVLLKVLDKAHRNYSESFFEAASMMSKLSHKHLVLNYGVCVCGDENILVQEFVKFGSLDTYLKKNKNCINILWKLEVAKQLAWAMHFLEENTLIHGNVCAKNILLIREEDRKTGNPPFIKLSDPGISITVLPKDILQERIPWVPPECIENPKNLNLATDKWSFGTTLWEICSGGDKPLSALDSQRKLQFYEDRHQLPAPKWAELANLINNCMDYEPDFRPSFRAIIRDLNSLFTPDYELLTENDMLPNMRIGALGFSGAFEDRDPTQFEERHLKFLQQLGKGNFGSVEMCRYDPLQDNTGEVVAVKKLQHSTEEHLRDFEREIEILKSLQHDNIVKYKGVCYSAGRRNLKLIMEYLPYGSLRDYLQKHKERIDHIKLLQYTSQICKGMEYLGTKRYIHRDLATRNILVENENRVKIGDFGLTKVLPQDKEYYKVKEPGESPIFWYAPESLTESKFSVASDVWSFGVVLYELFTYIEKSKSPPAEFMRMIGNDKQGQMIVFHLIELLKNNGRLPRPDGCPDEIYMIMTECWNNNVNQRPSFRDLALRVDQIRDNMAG
T2 sequence (Q9UM73 19-1620): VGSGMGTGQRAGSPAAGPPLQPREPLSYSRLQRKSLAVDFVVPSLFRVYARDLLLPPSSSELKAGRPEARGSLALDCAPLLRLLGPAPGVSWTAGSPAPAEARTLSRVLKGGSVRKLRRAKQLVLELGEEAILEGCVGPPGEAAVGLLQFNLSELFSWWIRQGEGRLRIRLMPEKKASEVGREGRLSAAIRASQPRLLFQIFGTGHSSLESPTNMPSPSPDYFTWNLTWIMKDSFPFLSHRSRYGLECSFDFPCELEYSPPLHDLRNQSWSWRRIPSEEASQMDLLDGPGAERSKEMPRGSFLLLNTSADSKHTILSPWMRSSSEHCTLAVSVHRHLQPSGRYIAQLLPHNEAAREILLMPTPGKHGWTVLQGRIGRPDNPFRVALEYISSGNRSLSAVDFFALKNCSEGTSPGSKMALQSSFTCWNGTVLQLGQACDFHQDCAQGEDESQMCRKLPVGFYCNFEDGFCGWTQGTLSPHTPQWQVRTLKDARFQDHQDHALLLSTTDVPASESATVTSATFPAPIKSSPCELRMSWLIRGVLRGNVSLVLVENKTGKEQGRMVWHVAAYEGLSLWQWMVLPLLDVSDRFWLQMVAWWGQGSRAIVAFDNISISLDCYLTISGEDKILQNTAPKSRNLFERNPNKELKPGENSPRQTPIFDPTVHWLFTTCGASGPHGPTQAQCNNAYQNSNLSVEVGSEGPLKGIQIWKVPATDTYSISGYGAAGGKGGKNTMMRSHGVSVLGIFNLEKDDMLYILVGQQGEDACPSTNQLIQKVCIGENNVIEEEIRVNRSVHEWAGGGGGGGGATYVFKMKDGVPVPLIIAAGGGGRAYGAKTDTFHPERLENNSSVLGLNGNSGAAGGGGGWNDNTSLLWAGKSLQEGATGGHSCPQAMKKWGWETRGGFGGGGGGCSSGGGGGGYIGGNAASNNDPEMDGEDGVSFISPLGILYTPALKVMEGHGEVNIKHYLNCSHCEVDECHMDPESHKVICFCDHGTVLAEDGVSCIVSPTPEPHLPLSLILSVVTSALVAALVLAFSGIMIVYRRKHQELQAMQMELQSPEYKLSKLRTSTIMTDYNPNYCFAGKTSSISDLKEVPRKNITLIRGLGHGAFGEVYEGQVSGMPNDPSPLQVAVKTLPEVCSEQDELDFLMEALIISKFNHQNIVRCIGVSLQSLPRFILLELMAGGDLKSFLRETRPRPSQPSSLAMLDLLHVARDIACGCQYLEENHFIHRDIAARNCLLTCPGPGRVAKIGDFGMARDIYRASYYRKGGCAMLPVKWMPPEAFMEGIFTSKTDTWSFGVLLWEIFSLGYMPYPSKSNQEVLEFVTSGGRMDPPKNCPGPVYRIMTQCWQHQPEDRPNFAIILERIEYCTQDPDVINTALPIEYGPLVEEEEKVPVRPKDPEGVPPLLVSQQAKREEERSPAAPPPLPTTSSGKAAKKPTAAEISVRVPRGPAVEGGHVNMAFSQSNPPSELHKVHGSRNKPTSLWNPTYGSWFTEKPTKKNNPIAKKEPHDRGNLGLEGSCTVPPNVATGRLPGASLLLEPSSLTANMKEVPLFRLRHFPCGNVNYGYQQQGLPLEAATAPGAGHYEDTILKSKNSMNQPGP

Regarding `COc1ccc(Cl)cc1-c1ccc2cnc(Nc3ccc(C(C)(C)C)c(NC(C)=O)c3)nn12` [Example 306, N-{2-tert-Butyl-5-[7-(5-chloro-2-methoxy-phenyl)-pyrrolo[2,1-f][1,2,4]triazin-2-ylamino]-phenyl}-acetamide], the IC50 was under 100 nM in assay [1] (JAK2 Kinase Inhibition) and 100 to 1000 nM in assay [2] (ALK Kinase Inhibition).
In the case of `COc1ccc(Cl)cc1-c1ccc2cnc(Nc3ccc(N4CCCC(N5CCN(C)CC5)C4)cc3)nn12` (stereo not shown) [Example 349, [7-(5-Chloro-2-methoxy-phenyl)-pyrrolo[2,1-f][1,2,4]triazin-2-yl]-{4-[3-(4-methyl-piperazin-1-yl)-piperidin-1-yl]-phenyl}-amine], the IC50 in assay [1] (JAK2 Kinase Inhibition) and in assay [2] (ALK Kinase Inhibition) was under 100 nM throughout.
Consider `CS(=O)(=O)Nc1cccc(-c2ccc3cnc(Nc4ccc(N5CCN(CCO)CC5)cc4)nn23)c1` [Example 380, N-[3-(2-{4-[4-(2-Hydroxy-ethyl)-piperazin-1-yl]-phenylamino}-pyrrolo[2,1-f][1,2,4]triazin-7-yl)-phenyl]-methanesulfonamide], for which the IC50 in assay [1] (JAK2 Kinase Inhibition) and in assay [2] (ALK Kinase Inhibition) was under 100 nM each time.
Regarding `COc1cc(C2CCN(CC(O)CF)CC2)ccc1Nc1ncc2ccc(-c3ccccc3N(C)S(C)(=O)=O)n2n1` (racemic) [Example 826, (±)-N-[2-(2-{4-[1-(3-Fluoro-2-hydroxy-propyl)-piperidin-4-yl]-2-methoxy-phenylamino}-pyrrolo[2,1-f][1,2,4]triazin-7-yl)-phenyl]-N-methyl-methanesulfonamide], the IC50 is 100 to 1000 nM in assay [1] (setting [3]) and under 100 nM in assay [2] (setting [4]).
With `COc1cc(N2CCN(C[C@H](C)O)CC2)ccc1Nc1ncc2ccc(-c3c(OC)cccc3OC)n2n1` [Example 543, (S)-1-(4-{4-[7-(2,6-Dimethoxy-phenyl)-pyrrolo[2,1-f][1,2,4]triazin-2-ylamino]-3-methoxy-phenyl}-piperazin-1-yl)-propan-2-ol], the results for the IC50 in assay [1] (setting [3]) and in assay [2] (setting [4]) were 1000 to 10000 nM and under 100 nM, respectively.
As to `N#CCOc1ccccc1-c1ccc2cnc(Nc3ccc(N4CCOCC4)cc3)nn12` [Example 1144, {2-[2-(4-Morpholin-4-yl-phenylamino)-pyrrolo[2,1-f][1,2,4]triazin-7-yl]-phenoxy}-acetonitrile], the IC50 in assay [1] (setting [3]) and in assay [2] (setting [4]) was under 100 nM in each case.
As for `COc1ccccc1-c1ccc2cnc(Nc3ccc4c(c3)C(N)C(O)C4)nn12` (stereo not shown) [Example 681, 1-Amino-6-[7-(2-methoxy-phenyl)-pyrrolo[2,1-f][1,2,4]triazin-2-ylamino]-indan-2-ol], the IC50 in assay [1] (setting [3]) was under 100 nM; in assay [2] (setting [4]), 100 to 1000 nM.
On the same counts, the results for `COc1ccccc1-c1ccc2cnc(Nc3ccc(-c4cccnc4)cc3)nn12` [Example 1091, [7-(2-Methoxy-phenyl)-pyrrolo[2,1-f][1,2,4]triazin-2-yl]-(4-pyridin-3-yl-phenyl)-amine] are under 100 nM and 1000 to 10000 nM.
For the compound `COc1cc(C2CCN(CCF)CC2)ccc1Nc1ncc2ccc(-c3ccccc3N(C)S(C)(=O)=O)n2n1` [Example 792, N-[2-(2-{4-[1-(2-Fluoro-ethyl)-piperidin-4-yl]-2-methoxy-phenylamino}-pyrrolo[2,1-f][1,2,4]triazin-7-yl)-phenyl]-N-methyl-methanesulfonamide], the IC50 in assay [1] (setting [3]) is 100 to 1000 nM; in assay [2] (setting [4]) it was under 100 nM.
With `COc1cc(C2CCN(CC(N)=O)CC2)ccc1Nc1ncc2c(C)cc(-c3ccccc3OC)n2n1` [Example 1262, 2-(4-{3-Methoxy-4-[7-(2-methoxy-phenyl)-5-methyl-pyrrolo[2,1-f][1,2,4]triazin-2-ylamino]-phenyl}-piperidin-1-yl)-acetamide], the IC50 is 100 to 1000 nM in assay [1] (setting [3]) and under 100 nM in assay [2] (setting [4]).
For `CS(=O)(=O)c1cccc(-c2ccc3cnc(Nc4ccc(F)c(Cl)c4)nn23)c1` [Example 597, (3-Chloro-4-fluoro-phenyl)-[7-(3-methanesulfonyl-phenyl)-pyrrolo[2,1-f][1,2,4]triazin-2-yl]-amine] the same measures were under 100 nM and over 10000 nM.
With `c1cncc(-c2ccc3cnc(-n4cnc5cnccc54)nn23)c1` [Example 325, 1-(7-Pyridin-3-yl-pyrrolo[2,1-f][1,2,4]triazin-2-yl)-1H-imidazo[4,5-c]pyridine], the IC50 in assay [1] (JAK2 Kinase Inhibition) and in assay [2] (ALK Kinase Inhibition) was 1000 to 10000 nM throughout.
On to `COc1cc(C2CCN(C)CC2)ccc1Nc1ncc2ccc(-c3ccccc3OC)n2n1` [Example 762, [2-Methoxy-4-(1-methyl-piperidin-4-yl)-phenyl]-[7-(2-methoxy-phenyl)-pyrrolo[2,1-f][1,2,4]triazin-2-yl]-amine], for which the IC50 in assay [1] (setting [3]) and in assay [2] (setting [4]) was under 100 nM each time.
In the case of `CN(C)Cc1ccc(-c2ccc3cnc(Nc4ccc(C5CCN(CC(N)=O)CC5)cc4)nn23)cc1` [Example 1433, 2-(4-{4-[7-(4-Dimethylaminomethyl-phenyl)-pyrrolo[2,1-f][1,2,4]triazin-2-ylamino]-phenyl}-piperidin-1-yl)-acetamide], the IC50 in assay [1] (JAK2 Kinase Inhibition) and in assay [2] (ALK Kinase Inhibition) was 1000 to 10000 nM in each case.
As for `COc1cc([C@]2(C#N)CC[C@H](N3CCOCC3)CC2)ccc1Nc1ncc2ccc(-c3ccccc3N(C)S(C)(=O)=O)n2n1` [Example 1245, N-{2-[2-({4-[trans-1-cyano-4-(morpholin-4-yl)cyclohexyl]-2-methoxyphenyl}amino)pyrrolo[2,1-f][1,2,4]triazin-7-yl]phenyl}-N-methylmethanesulfonamide], the IC50 is 100 to 1000 nM in assay [1] (setting [3]) and under 100 nM in assay [2] (setting [4]).
On the same counts, the results for `COc1ccc(C(=O)N2CCN(C)CC2)cc1Nc1ncc2ccc(-c3ccccc3OC)n2n1` [Example 494, {4-Methoxy-3-[7-(2-methoxy-phenyl)-pyrrolo[2,1-f][1,2,4]triazin-2-ylamino]-phenyl}-(4-methyl-piperazin-1-yl)-methanone] are over 10000 nM and 1000 to 10000 nM.
Regarding `CN1CCN(c2cccc(Nc3ncc4ccc(-c5cccc(S(=O)(=O)NC(C)(C)C)c5)n4n3)c2)CC1` [Example 883, N-tert-Butyl-3-{2-[3-(4-methyl-piperazin-1-yl)-phenylamino]-pyrrolo[2,1-f][1,2,4]triazin-7-yl}-benzenesulfonamide], the IC50 in assay [1] (setting [3]) and in assay [2] (setting [4]) was under 100 nM each time.
As to `c1ccc(-c2ccc3cnc(NCCCN4CCOCC4)nn23)cc1` [Example 29, (3-Morpholin-4-yl-propyl)-(7-phenyl-pyrrolo[2,1-f][1,2,4]triazin-2-yl)-amine], the IC50 in assay [1] (JAK2 Kinase Inhibition) was 1000 to 10000 nM; in assay [2] (ALK Kinase Inhibition) it was over 10000 nM.
For `COc1ccccc1-c1ccc2cnc(Nc3ccc(C4CCN(C(=O)OC(C)(C)C)C4)cc3)nn12` (stereo not shown) [Example 1008, 3-{4-[7-(2-Methoxy-phenyl)-pyrrolo[2,1-f][1,2,4]triazin-2-ylamino]-phenyl}-pyrrolidine-1-carboxylic acid tert-butyl ester], the IC50 was under 100 nM in assay [1] (setting [3]) and 100 to 1000 nM in assay [2] (setting [4]).
As to `COc1cc(C2CCN(C(=O)C3CCN3)CC2)ccc1Nc1ncc2ccc(-c3ccccc3OC)n2n1` (racemic) [Example 862, (±)-Azetidin-2-yl-(4-{3-methoxy-4-[7-(2-methoxy-phenyl)-pyrrolo[2,1-f][1,2,4]triazin-2-ylamino]-phenyl}-piperidin-1-yl)-methanone], the IC50 in assay [1] (setting [3]) is 100 to 1000 nM; in assay [2] (setting [4]), under 100 nM.
Regarding `C1=C(c2ccc3cnc(Nc4ccc(N5CCOCC5)cc4)nn23)CCSC1` [Example 613, [7-(3,6-Dihydro-2H-thiopyran-4-yl)-pyrrolo[2,1-f][1,2,4]triazin-2-yl]-(4-morpholin-4-yl-phenyl)-amine], the IC50 in assay [1] (setting [3]) was under 100 nM; in assay [2] (setting [4]) it was 1000 to 10000 nM.
Turning to `CN1CCN(c2ccc(Nc3ncc4ccc(-c5ccccc5NC(=O)C(C)(C)C)n4n3)cc2)CC1` [Example 403, 2,2-Dimethyl-N-(2-{2-[4-(4-methyl-piperazin-1-yl)-phenylamino]-pyrrolo[2,1-f][1,2,4]triazin-7-yl}-phenyl)-propionamide], the IC50 is 1000 to 10000 nM in assay [1] (JAK2 Kinase Inhibition) and over 10000 nM in assay [2] (ALK Kinase Inhibition).
With `COc1cc(N2CCC[C@H](C(=O)N3CCN(C)CC3)C2)ccc1Nc1ncc2ccc(-c3ccccc3OC)n2n1` [Example 461, ((S)-1-{3-Methoxy-4-[7-(2-methoxy-phenyl)-pyrrolo[2,1-f][1,2,4]triazin-2-ylamino]-phenyl}-piperidin-3-yl)-(4-methyl-piperazin-1-yl)-methanone], the IC50 in assay [1] (JAK2 Kinase Inhibition) was 100 to 1000 nM; in assay [2] (ALK Kinase Inhibition), under 100 nM.
Turning to `COc1cc(C2CCN(C(C)C(N)=O)CC2)ccc1Nc1ncc2ccc(-c3ccccc3OC)n2n1` (stereo not shown) [Example 1275, 2-(4-{3-Methoxy-4-[7-(2-methoxy-phenyl)-pyrrolo[2,1-f][1,2,4]triazin-2-ylamino]-phenyl}-piperidin-1-yl)-propionamide], the IC50 was 100 to 1000 nM in assay [1] (setting [3]) and under 100 nM in assay [2] (setting [4]).
Take `OCC1CCN(c2ccc(Nc3ncc4ccc(-c5cccnc5)n4n3)cc2)CC1` [Example 116, {1-[4-(7-Pyridin-3-yl-pyrrolo[2,1-f][1,2,4]triazin-2-ylamino)-phenyl]-piperidin-4-yl}-methanol]: the IC50 in assay [1] (JAK2 Kinase Inhibition) was under 100 nM; in assay [2] (ALK Kinase Inhibition), 1000 to 10000 nM.
With `COc1ccc(-c2ccc3cnc(Nc4ccc(C5CCN(C)CC5)c(C)c4)nn23)cn1` [Example 941, [7-(6-Methoxy-pyridin-3-yl)-pyrrolo[2,1-f][1,2,4]triazin-2-yl]-[3-methyl-4-(1-methyl-piperidin-4-yl)-phenyl]-amine], the IC50 in assay [1] (setting [3]) and in assay [2] (setting [4]) was under 100 nM throughout.
